Consider 1 substance from patent US10392599B2, “Method for non-freeze low-temperature preservation of mammalian embryo or fertilized egg” (NATIONAL FEDERATION OF AGRICULTURAL COOPERATIVE ASSOCIATIONS, priority 2012, dated 2019).

For test [1], the system named is bovine embryos. The test can be described thus: conception test: implantation of high-quality bovine embryos preserved 7 days in the non-frozen state into recipient cattle. The class given is in vivo. To be noted: 25 mM HEPES. Here is the method: Embryos collected from donor bovine animals of Japanese Black Cattle and Holstein Cattle after superovulation were evaluated for their qualities according to the regulation by International Embryo Transfer Society (IETS manual. Manual of the international embryo transfer society. In: Stringfellow D A, Seidel S M, editors. Savoy, Ill., USA: IETS 1998). Low-quality embryos were subjected to an in vitro culture test after 7 days of non-freezing preservation, and high-quality embryos were subjected to investigation of the conception rate after implantation to recipient cattle.
Preservation of bovine embryos was carried out as follows (FIG. 1). First, a preservative solution alone was sucked into a straw having a capacity of 0.25 ml, and, after introduction of an air layer, a bovine embryo contained in the preservative solution was sucked. Thereafter, an air layer was introduced, and the preservative solution alone was sucked again. The straw was then sealed. Subsequently, the straw containing the sucked bovine embryo was immersed in water contained in a plastic container (plastic tube) which had been preliminarily cooled to 4 to 5° C. The plastic container was then stored in a refrigerator for 7 days at 4 to 5° C.
After the non-freezing preservation, the bovine embryo was washed 3 times by immersion in PBS(+) containing 5% (v/v) fetal bovine serum (FBS). The washed bovine embryo was cultured under 5% CO2 at 38° C. in CR1aa medium containing 5% (v/v) FBS for 48 hours. Morphological observation was carried out under a stereoscopic microscope, and the embryo was judged to be alive if the progress of cleavage by the culture could be found and the cytoplasmic membrane was not disrupted. Live cells were checked for whether hatching from the zona pellucida could be observed or not. A bovine embryo washed with PBS(+) containing 5% (v/v) FBS was nonsurgically implanted into the deep part of the corpus-luteum-side uterine horn of each recipient cattle on Day 6 to 8 of an estrous cycle (the date of estrus was defined as Day 0). On Days 30 and 60 of the estrous cycle, pregnancy diagnosis was carried out. For a significance test to verify the effect of the embryo preservation solution according to the present invention, a χ^2 test was used.
To medium 199 (Invitrogen) supplemented with antibiotics (penicillin G potassium and streptomycin sulfate), FBS was added to 20 to 50% (v/v), and HEPES was also added to a concentration of 0 to 100 mM. In the conception test, a group in which a special peptide having a protection effect against low temperature (mature Nfel1, SEQ ID NO:2) was added was also provided. In addition, in order to investigate the effects of other Good's buffers other than HEPES, preservation solutions were prepared by adding FBS and a Good's buffer (PIPES or MOPS) to medium 199 such that the concentration of FBS was 50% (v/v) and the concentration of the Good's buffer was 25 mM. These preservation solutions were sterilized by filtration through a filter having a pore size of 0.2 μm, and stored in a refrigerator until use.
Subsequently, the conception ability of high-quality bovine embryos that had been preserved in the non-frozen state for 7 days was investigated. Since the concentration of HEPES generally recommended for use in cell culture is 10 to 25 mM (Luo S et al., Effect of HEPES buffer on the uptake and transport of P-glycoprotein substrates and large neutral amino acids. Mol Pharm 2010; 7:412-420), the concentration of HEPES in the non-freezing preservative solution used in the present test for investigation of the conception ability was set to 25 mM. The special recombinant peptide having a protection effect against low temperature (mature Nfel1 peptide) was added to medium 199 containing 50% (v/v) FBS supplemented with 25 mM HEPES, to see whether the peptide improves the conception ability or not.

For test [2], the system named is bovine embryos. The following applies: mature Nfel1 in combination with about 20 to 50% (v/v) serum; cited from earlier work.
[3] abbreviates: medium 199, 50% (v/v) FBS, 7 days non-frozen.
Setting [4] is: medium 199, 50% (v/v) FBS, 7 days non-frozen, 16 implanted embryos.

On to “Special recombinant peptide: special peptide having a protection effect against low temperature (mature Nfel1, SEQ ID NO:2), 66 residues, expressed in E. coli”, for which, in the test on bovine embryos [1] (setting [3]), the “Conceptus number on Day 30 (%)” value worked out at 75.0% and the “Conceptus number on Day 60 (%)” value was found to be 75.0%. Besides, in the test on bovine embryos [1] (setting [4]), the “Conceptus number on Day 30” value stood at 12 and the “Conceptus number on Day 60” value is 12. In the test on bovine embryos [1] (peptide added to medium 199, 50% (v/v) FBS), the conception-promoting effect entry is recorded as “No conception-promoting effect was found”. Also, the “period of preservation of bovine embryos at non-freezing low temperature” value with bovine embryos [2] is reported as “up to 5 days”.
